Reference: US9511052B2, “Mineralocorticoid receptor antagonists” (Merck Sharp & Dohme Corp., priority 2012, dated 2016)

What was measured:
[1] = target: T1, full-length human Mineralocorticoid Receptor (MR) (Homo sapiens, UniProt P08235); assay: human MR NH Pro assay (PathHunter Protein:Protein interaction assay), MR antagonism; format: cell-based; settings: IP = inflection point of the dose-response curve; CHO-K1 cells overexpressing human MR, aldosterone about 0.3 nM to about 1 nM, 6 hours at 37° C.
T1 construct: host or cells: PathHunter CHO-K1 MR cells
T1 sequence (P08235 1-984): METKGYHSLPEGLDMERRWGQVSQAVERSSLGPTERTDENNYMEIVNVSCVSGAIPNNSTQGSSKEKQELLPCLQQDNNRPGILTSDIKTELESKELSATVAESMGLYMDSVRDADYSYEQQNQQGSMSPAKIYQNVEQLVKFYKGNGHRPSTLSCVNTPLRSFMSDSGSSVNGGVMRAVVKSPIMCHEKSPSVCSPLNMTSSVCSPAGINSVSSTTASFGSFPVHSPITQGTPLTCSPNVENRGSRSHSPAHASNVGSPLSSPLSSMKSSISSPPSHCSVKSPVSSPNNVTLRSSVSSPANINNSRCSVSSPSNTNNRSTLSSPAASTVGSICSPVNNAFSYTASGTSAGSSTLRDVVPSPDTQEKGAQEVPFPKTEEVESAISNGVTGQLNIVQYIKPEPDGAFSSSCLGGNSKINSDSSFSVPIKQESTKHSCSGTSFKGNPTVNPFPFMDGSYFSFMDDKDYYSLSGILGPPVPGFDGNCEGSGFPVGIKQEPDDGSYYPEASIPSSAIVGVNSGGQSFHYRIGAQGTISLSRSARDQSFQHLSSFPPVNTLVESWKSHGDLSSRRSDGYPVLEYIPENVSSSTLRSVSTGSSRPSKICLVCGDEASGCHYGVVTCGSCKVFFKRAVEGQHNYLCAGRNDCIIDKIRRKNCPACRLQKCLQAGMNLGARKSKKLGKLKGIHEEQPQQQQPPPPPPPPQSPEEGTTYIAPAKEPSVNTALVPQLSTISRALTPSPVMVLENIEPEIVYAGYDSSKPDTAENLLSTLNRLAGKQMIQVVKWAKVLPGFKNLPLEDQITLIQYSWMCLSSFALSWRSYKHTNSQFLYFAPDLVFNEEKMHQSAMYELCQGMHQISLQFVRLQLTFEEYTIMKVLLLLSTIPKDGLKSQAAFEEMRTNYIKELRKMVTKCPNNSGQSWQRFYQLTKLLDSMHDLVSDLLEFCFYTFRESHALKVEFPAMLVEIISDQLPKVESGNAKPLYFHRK
How it was run: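 PathHunter CHO-K1 MR cells (10K/well) plated overnight at 37°C, 5% CO2, then exposed 6 h to a 10-point titration starting at 36.7 μM final, in duplicate, DMSO <1%. MR–coactivator peptide interaction read by luminescence after 1 h with DiscoveRx detection reagent at room temperature.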

PK profile in rats = format: in vivo, rat
[2] = Liver microsome stability, human; format: in vitro ADME; settings: Human
[3] = Liver microsome stability, rat; format: in vitro ADME; settings: liver microsomes, read-out: Liver Microsome Stability (t1/2)
[4] = Liver microsome stability, dog; format: in vitro ADME; settings: liver microsomes, read-out: Liver Microsome Stability (t1/2)
[5] = Liver microsome stability, rhesus monkey; format: in vitro ADME; settings: liver microsomes, read-out: Liver Microsome Stability (t1/2)
[6] = Hepatocyte stability, human; format: in vitro ADME; settings: human, hepatocytes; read-out: Hepatocyte Stability (t1/2)
[7] = Hepatocyte stability, rat; format: in vitro ADME; settings: hepatocytes, read-out: Hepatocyte Stability (t1/2)
[8] = Hepatocyte stability, dog; format: in vitro ADME; settings: hepatocytes, read-out: Hepatocyte Stability (t1/2)
[9] = Hepatocyte stability, rhesus monkey; format: in vitro ADME; settings: hepatocytes, read-out: Hepatocyte Stability (t1/2)
[10] = Metabolic stability in liver microsome and hepatocytes of multiple animal species (overall statement); format: in vitro ADME

In the case of `CCC(c1ccc(C(F)(F)F)cc1)(C(O)C(F)F)n1ncc2c(NS(C)(=O)=O)cccc21` (single isomer, unassigned) [Compound 47, N-(1-(1,1-difluoro-2-hydroxy-3-(4-(trifluoromethyl)phenyl)pentan-3-yl)-1H-indazol-4-yl)methanesulfonamide], the IC50 [1] is reported as 11 nM, the Cl (PK profile in rats) is reported as 3.8 mL/min/kg and the “PK profile in rats (in words)” value (PK profile in rats) is reported as “good PK profile”. It also gave a t1/2 (PK profile in rats) of 9.9 h, an AUCN po (PK profile in rats; po) of 8.9 µM·kg·h/mg and a bioavailability (PK profile in rats; rat, in vivo, oral) of 77%. The “Liver Microsome Stability (t1/2)” value [2] was 62 min, the half-life [3] was 154 min and the half-life [4] was 162 min. It also gave a half-life [5] of 42 min, a half-life [6] of over 90 min and a half-life [7] of over 90 min. For the same compound, the half-life [8] was over 90 min, the half-life [9] was over 90 min and the “metabolic stability in liver microsome and hepatocytes of multiple animal species (in words)” value [10] was “good metabolic stability”.
